Laboratory results from ChEMBL document CHEMBL1201862, “PubChem BioAssay data set” (2004).
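Cultured in 96-well plates, cells were exposed to test compound for 48 hours across five concentrations. Abbreviation: GI50, concentration required for 50% inhibition of growth.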 Activity calls are given as the source filed them. Cut-off read from the data, not from the text of the source: active = GI50 up to about 1.1 µM and inactive = higher.

How the values were obtained:
Assay in all cases: growth of human tumour cells (NCI), 48 h
[1] = test system: SNB-78
[2] = test system: HOP-18
[3] = test system: RXF 393
[4] = test system: XF498
[5] = test system: TK-10
[6] = test system: 786-0
[7] = test system: LXFL 529
[8] = test system: HL-60
[9] = test system: M14
[10] = test system: UACC-62
[11] = test system: DMS-273
[12] = test system: ACHN
[13] = test system: COLO 205
[14] = test system: SN12C
[15] = test system: U-251
[16] = test system: DLD-1
[17] = test system: SW-620
[18] = test system: MCF7
[19] = test system: NCI/ADR-RES
[20] = test system: T47D

Row | Compound | GI50 [1] | GI50 [2] | GI50 [3] | GI50 [4] | GI50 [5] | GI50 [6] | GI50 [7] | GI50 [8] | GI50 [9] | GI50 [10] | GI50 [11] | GI50 [12] | GI50 [13] | GI50 [14] | GI50 [15] | GI50 [16] | GI50 [17] | GI50 [18] | GI50 [19] | GI50 [20]
1 | O=C(CC1OC(O)C(Cl)=C1Cl)c1cccnc1 (stereo unspecified) | > 100 µM (inactive) | > 100 µM (inactive) | > 100 µM (inactive) | > 100 µM (inactive) | > 100 µM (inactive) | > 41.5 µM (inactive) | > 56.1 µM (inactive) | > 100 µM (inactive) | > 100 µM (inactive) | > 100 µM (inactive) | > 53 µM (inactive) | > 31.6 µM (inactive) | > 100 µM (inactive) | > 100 µM (inactive) | > 41.2 µM (inactive) |  |  |  |  | 
2 | CC(=O)NC1C(O)CC(OCCCSCCN)(C(=O)O)OC1C(O)C(O)CO (stereo unspecified) | > 100 µM (inactive) | > 100 µM (inactive) | > 100 µM (inactive) | > 100 µM (inactive) | > 100 µM (inactive) |  | > 100 µM (inactive) | > 100 µM (inactive) | > 100 µM (inactive) |  | > 100 µM (inactive) | > 100 µM (inactive) | > 100 µM (inactive) | > 100 µM (inactive) | > 100 µM (inactive) | > 100 µM (inactive) | > 100 µM (inactive) |  |  | 
3 | CCOC(=O)C(C#N)(Cc1c[nH]c2ccccc12)NC(C)=O (stereo unspecified) |  |  | > 100 µM (inactive) |  | > 100 µM (inactive) |  | > 100 µM (inactive) | > 100 µM (inactive) | > 100 µM (inactive) | > 100 µM (inactive) | > 100 µM (inactive) | > 100 µM (inactive) | > 100 µM (inactive) | > 100 µM (inactive) | > 100 µM (inactive) | > 100 µM (inactive) | > 100 µM (inactive) |  |  | 
4 | COc1ccc(CC(N)=O)cc1OC | > 1250 µM (inactive) | 881 µM (inactive) | > 1250 µM (inactive) | > 879 µM (inactive) |  |  |  | > 1150 µM (inactive) |  | > 1250 µM (inactive) | > 1250 µM (inactive) |  | > 1250 µM (inactive) | > 1250 µM (inactive) | > 1250 µM (inactive) | > 1250 µM (inactive) | > 1250 µM (inactive) | > 1250 µM (inactive) | > 1250 µM (inactive) | 
5 | O=C1C2CN(Cc3ccccc3)CC1CN(CC1CC1)C2 |  | > 100 µM (inactive) | > 100 µM (inactive) | > 100 µM (inactive) | > 100 µM (inactive) | > 100 µM (inactive) | > 100 µM (inactive) | > 100 µM (inactive) | > 100 µM (inactive) | > 100 µM (inactive) | > 100 µM (inactive) | > 100 µM (inactive) | > 100 µM (inactive) | > 100 µM (inactive) | > 100 µM (inactive) |  | > 100 µM (inactive) |  |  | 
6 | COc1cc([C@@H]2c3cc4c(cc3[C@@H](OC3OC5COC(C)OC5C(O)C3O)[C@H]3COC(=O)[C@H]23)OCO4)cc(OC)c1O (stereo partly specified) | 46.8 µM (inactive) | 28.3 µM (inactive) | 14.9 µM (inactive) | 8.41 µM (inactive) |  |  | 26.5 µM (inactive) | 0.807 µM (active) |  | 6.11 µM (inactive) | 1.97 µM (inactive) |  | 40.3 µM (inactive) | 5.2 µM (inactive) | 3.3 µM (inactive) | 37.2 µM (inactive) | 6.71 µM (inactive) |  | 65.5 µM (inactive) | 0.897 µM (active)
7 | OCC#CCNCl | > 100 µM (inactive) | > 100 µM (inactive) | > 100 µM (inactive) | > 53.1 µM (inactive) |  |  |  | > 100 µM (inactive) |  | > 100 µM (inactive) | > 100 µM (inactive) |  | > 100 µM (inactive) | > 100 µM (inactive) | > 100 µM (inactive) | > 100 µM (inactive) | > 100 µM (inactive) | > 100 µM (inactive) | > 100 µM (inactive) | 
8 | COC(=O)C(Cc1cc(OC)c(OC)c(OC)c1)(NC(=O)c1ccccc1)P(=O)(OC)OC (stereo unspecified) | > 100 µM (inactive) |  | > 100 µM (inactive) | > 100 µM (inactive) | > 100 µM (inactive) |  | > 100 µM (inactive) | > 100 µM (inactive) | > 100 µM (inactive) | > 100 µM (inactive) | > 100 µM (inactive) | > 100 µM (inactive) | > 100 µM (inactive) | > 100 µM (inactive) | > 100 µM (inactive) | > 100 µM (inactive) | > 100 µM (inactive) |  |  | 
